Test results reported in ChEMBL document CHEMBL1201862, “PubChem BioAssay data set” (2004).
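All cell lines were grown in 96-well plates and treated with compound for 48 hours. Abbreviation: GI50, concentration required for 50% inhibition of growth.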 Active and inactive are the calls of the source. Cut-off read from the data, not from the text of the source: active = GI50 up to about 1.1 µM and inactive = higher.

Key:
Assay in all cases: DTP human tumour cell line panel, 48 h
[1] = system: UACC-257
[2] = system: MDA-N
[3] = system: HT-29
[4] = system: OVCAR-8
[5] = system: NCI/ADR-RES
[6] = system: SF-268
[7] = system: BT-549
[8] = system: HL-60
[9] = system: NCI-H23
[10] = system: SK-OV-3
[11] = system: HOP-92
[12] = system: HOP-62
[13] = system: K562
[14] = system: OVCAR-4
[15] = system: SR
[16] = system: OVCAR-5
[17] = system: NCI-H522
[18] = system: UACC-62
[19] = system: A549
[20] = system: HCT-116
[21] = system: HCT-15
[22] = system: MDA-MB-231
[23] = system: SK-MEL-2
[24] = system: PC-3
[25] = system: RPMI-8226
[26] = system: CAKI-1
[27] = system: SW-620
[28] = system: T47D
[29] = system: LOX IMVI
[30] = system: SK-MEL-28
[31] = system: DU-145
[32] = system: SNB-19
[33] = system: ACHN
[34] = system: KM12
[35] = system: U-251
[36] = system: A498
[37] = system: SF-539
[38] = system: MOLT-4
[39] = system: 786-0
[40] = system: SF-295
[41] = system: UO-31
[42] = system: IGROV-1
[43] = system: SK-MEL-5
[44] = system: MCF7
[45] = system: HCC 2998
[46] = system: TK-10
[47] = system: MDA-MB-435
[48] = system: CCRF-CEM
[49] = system: SN12C
[50] = system: NCI-H226
[51] = system: M14
[52] = system: EKVX
[53] = system: COLO 205
[54] = system: OVCAR-3
[55] = system: Malme-3M
[56] = system: SNB-75
[57] = system: RXF 393
[58] = system: Hs-578T
[59] = system: NCI-H460

## CC1(C)O[C@H]2[C@@H]3N=C(c4ccccc4)O[C@@H]3C=C[C@H]2O1
[1]
  GI50: > 100 µM (inactive)
[2]
  GI50: > 100 µM (inactive)
[3]
  GI50: > 100 µM (inactive)
[4]
  GI50: > 100 µM (inactive)
[5]
  GI50: > 100 µM (inactive)
[6]
  GI50: 17.6 µM (inactive)
[7]
  GI50: > 100 µM (inactive)
[8]
  GI50: > 100 µM (inactive)
[9]
  GI50: > 100 µM (inactive)
[10]
  GI50: > 100 µM (inactive)
[11]
  GI50: 83.2 µM (inactive)
[12]
  GI50: > 100 µM (inactive)
[13]
  GI50: > 100 µM (inactive)
[14]
  GI50: > 100 µM (inactive)
[15]
  GI50: > 100 µM (inactive)
[16]
  GI50: > 100 µM (inactive)
[17]
  GI50: 4.01 µM (inactive)
[18]
  GI50: > 100 µM (inactive)
[19]
  GI50: > 100 µM (inactive)
[20]
  GI50: > 100 µM (inactive)
[21]
  GI50: > 100 µM
[22]
  GI50: > 100 µM (inactive)
[23]
  GI50: > 100 µM (inactive)
[24]
  GI50: > 100 µM (inactive)
[25]
  GI50: > 100 µM (inactive)
[26]
  GI50: > 100 µM (inactive)
[27]
  GI50: > 100 µM (inactive)
[28]
  GI50: > 100 µM (inactive)
[29]
  GI50: > 100 µM (inactive)
[30]
  GI50: > 100 µM (inactive)
[31]
  GI50: > 100 µM (inactive)
[32]
  GI50: > 100 µM (inactive)
[33]
  GI50: > 100 µM (inactive)
[34]
  GI50: > 100 µM (inactive)
[35]
  GI50: > 100 µM (inactive)
[36]
  GI50: > 100 µM (inactive)
[37]
  GI50: > 100 µM (inactive)
[38]
  GI50: > 100 µM (inactive)
[39]
  GI50: > 100 µM (inactive)
[40]
  GI50: > 100 µM (inactive)
[41]
  GI50: > 100 µM (inactive)
[42]
  GI50: > 100 µM (inactive)
[43]
  GI50: > 100 µM (inactive)
[44]
  GI50: > 100 µM (inactive)
[45]
  GI50: > 100 µM (inactive)
[46]
  GI50: > 100 µM (inactive)
[47]
  GI50: > 100 µM (inactive)
[48]
  GI50: > 100 µM (inactive)
[49]
  GI50: > 100 µM (inactive)
[50]
  GI50: > 100 µM (inactive)
[51]
  GI50: > 100 µM (inactive)
[52]
  GI50: 59.7 µM (inactive)
[53]
  GI50: > 100 µM (inactive)
[54]
  GI50: > 100 µM (inactive)

## C[C@H]1[C@H](C)N(Cc2ccccc2)P(=O)(C(O)/C=C/c2ccccc2)N1Cc1ccccc1 (some centres undefined)
[1]
  GI50: 5.42 µM (inactive)
[2]
  GI50: 5.55 µM (inactive)
[3]
  GI50: 5.24 µM (inactive)
[4]
  GI50: 8.53 µM (inactive)
[5]
  GI50: 10.4 µM (inactive)
[6]
  GI50: 6.84 µM (inactive)
[7]
  GI50: 12 µM (inactive)
[9]
  GI50: 9.84 µM (inactive)
[10]
  GI50: 9.68 µM (inactive)
[11]
  GI50: 7.18 µM (inactive)
[12]
  GI50: 8.41 µM (inactive)
[13]
  GI50: 7.74 µM (inactive)
[14]
  GI50: 5.04 µM (inactive)
[15]
  GI50: 6.55 µM (inactive)
[16]
  GI50: 6.61 µM (inactive)
[17]
  GI50: 5.83 µM (inactive)
[18]
  GI50: 4.18 µM (inactive)
[19]
  GI50: 8.07 µM (inactive)
[20]
  GI50: 5.21 µM (inactive)
[21]
  GI50: 9.29 µM
[22]
  GI50: 6.12 µM (inactive)
[23]
  GI50: 4.7 µM (inactive)
[24]
  GI50: 5.37 µM (inactive)
[25]
  GI50: 6.22 µM (inactive)
[26]
  GI50: 8.28 µM (inactive)
[27]
  GI50: 9.25 µM (inactive)
[28]
  GI50: 6.27 µM (inactive)
[29]
  GI50: 6.76 µM (inactive)
[55]
  GI50: 5.58 µM (inactive)
[30]
  GI50: 8.51 µM (inactive)
[32]
  GI50: 12 µM (inactive)
[33]
  GI50: 8.47 µM (inactive)
[56]
  GI50: 6.95 µM (inactive)
[34]
  GI50: 8.91 µM (inactive)
[35]
  GI50: 5.11 µM (inactive)
[36]
  GI50: 5.45 µM (inactive)
[37]
  GI50: 5.07 µM (inactive)
[38]
  GI50: 8.73 µM (inactive)
[57]
  GI50: 6.24 µM (inactive)
[58]
  GI50: 4.79 µM (inactive)
[39]
  GI50: 5.32 µM (inactive)
[40]
  GI50: 6.95 µM (inactive)
[41]
  GI50: 5.27 µM (inactive)
[42]
  GI50: 8.32 µM (inactive)
[43]
  GI50: 4.55 µM (inactive)
[44]
  GI50: 8.3 µM (inactive)
[45]
  GI50: 6.3 µM (inactive)
[46]
  GI50: 7.01 µM (inactive)
[47]
  GI50: 4.33 µM (inactive)
[49]
  GI50: 4.6 µM (inactive)
[50]
  GI50: 7.52 µM (inactive)
[51]
  GI50: 4.62 µM (inactive)
[59]
  GI50: 3.72 µM (inactive)
[52]
  GI50: 7.67 µM (inactive)
[53]
  GI50: 6.64 µM (inactive)

## COc1cc(OC)c2c3c(OC)cc(OC)c4c(=O)c(O)c(C[C@@H](C)O)c(c5c(C[C@@H](C)O)c(O)c(=O)c1c25)c43
[1]
  GI50: 34.3 µM (inactive)
[2]
  GI50: 18.7 µM (inactive)
[3]
  GI50: 18.6 µM (inactive)
[4]
  GI50: 19.8 µM (inactive)
[5]
  GI50: 30.3 µM (inactive)
[6]
  GI50: 18.9 µM (inactive)
[7]
  GI50: 18.7 µM (inactive)
[8]
  GI50: 11.3 µM (inactive)
[9]
  GI50: 19 µM (inactive)
[10]
  GI50: 62.2 µM (inactive)
[11]
  GI50: 14.5 µM (inactive)
[12]
  GI50: 22.4 µM (inactive)
[14]
  GI50: 30.5 µM (inactive)
[16]
  GI50: 30.6 µM (inactive)
[19]
  GI50: 36.7 µM (inactive)
[20]
  GI50: 16 µM (inactive)
[21]
  GI50: 19.2 µM
[22]
  GI50: 1.89 µM (inactive)
[23]
  GI50: 19 µM (inactive)
[26]
  GI50: 18.8 µM (inactive)
[27]
  GI50: 15.5 µM (inactive)
[28]
  GI50: 16.6 µM (inactive)
[29]
  GI50: 12.6 µM (inactive)
[30]
  GI50: 20.1 µM (inactive)
[31]
  GI50: 30.8 µM (inactive)
[32]
  GI50: 57.5 µM (inactive)
[33]
  GI50: 33.4 µM (inactive)
[56]
  GI50: 14.2 µM (inactive)
[34]
  GI50: 23.2 µM (inactive)
[35]
  GI50: 23.5 µM (inactive)
[36]
  GI50: 28.8 µM (inactive)
[37]
  GI50: 24.8 µM (inactive)
[38]
  GI50: 15.3 µM (inactive)
[57]
  GI50: 22.4 µM (inactive)
[39]
  GI50: 19.1 µM (inactive)
[40]
  GI50: 40.2 µM (inactive)
[41]
  GI50: 30.7 µM (inactive)
[42]
  GI50: 16.6 µM (inactive)
[43]
  GI50: 14.2 µM (inactive)
[44]
  GI50: 21.2 µM (inactive)
[45]
  GI50: 16.3 µM (inactive)
[46]
  GI50: 53 µM (inactive)
[47]
  GI50: 16.6 µM (inactive)
[49]
  GI50: 24.5 µM (inactive)
[50]
  GI50: 19.6 µM (inactive)
[51]
  GI50: 17.4 µM (inactive)
[59]
  GI50: 27.2 µM (inactive)
[52]
  GI50: 32.4 µM (inactive)
[53]
  GI50: 3.72 µM (inactive)
[54]
  GI50: 1.02 µM (active)
